According to patent US20030232986A1, “Inhibitors of caspases” (Vertex Pharmaceuticals Incorporated, priority 1998, published 2003):
Read-outs that look alike come from different tables or passages of the source.

Key:
[1] = target: T1, Caspase-1 (Homo sapiens, UniProt P29466); assay: Caspase-1 enzyme inhibition (Ki); type: biochemical
T1 sequence (P29466 120-297 limits assumed): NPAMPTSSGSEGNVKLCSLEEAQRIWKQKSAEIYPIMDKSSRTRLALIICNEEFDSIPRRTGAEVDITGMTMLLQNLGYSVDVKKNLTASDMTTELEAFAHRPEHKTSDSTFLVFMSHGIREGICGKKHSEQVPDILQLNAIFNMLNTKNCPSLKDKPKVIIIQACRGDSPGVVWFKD
T1 sequence (P29466 317-404 limits assumed): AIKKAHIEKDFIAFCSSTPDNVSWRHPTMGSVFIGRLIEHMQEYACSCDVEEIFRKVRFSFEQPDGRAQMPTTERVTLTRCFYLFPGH
In short: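 Ki obtained by fitting rate versus inhibitor concentration to the Morrison tight-binding equation for competitive inhibitors, with pNA release read at 405 nm at 37 °C. Substrate Suc-YVAD-pNA (80 μM final) added after 15 min enzyme–inhibitor preincubation in Tris pH 7.5 buffer with DTT and CHAPS.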

[2] = system: Human Peripheral Blood Mononuclear Cells (PBMC), mature IL-1β; assay: PBMC cell assay: IL-1β assay with human peripheral blood mononuclear cells; type: cell-based; details: LPS-stimulated human PBMC, mature IL-1β in supernatant by ELISA
In short: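 Donor PBMC (suspension at 6×10^6 cells/ml) or adherent-enriched monocytes were stimulated with 5 ng/ml LPS (final) alongside 5–6 compound dilutions bracketing the ICE Ki, at 0.1% DMSO final, for 16–18 hr at 37° C, 5% CO2. Mature IL-1β in supernatants was measured by ELISA; IC50 was calculated relative to LPS-only controls.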

[3] = system: Human whole blood, IL-1β production; assay: Whole blood assay for IL-1β production; type: cell-based; details: LPS-stimulated whole blood, IL-1β by ELISA
In short: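 LPS-stimulated (5.0 ng/ml final) human whole blood incubated with test compound in saline (or plasma/PBS-5% DMSO for hydrophobic compounds) at 30° C for 16-18 hr. Plasma IL-1β then measured by ELISA at 1:200 dilution, against no-LPS, no-inhibitor and vehicle controls.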

[4] = substrate Suc-YVAD-pNA 80 μM, 37° C., pH 7.5

Compound | Ki [1, 4] [nM] | IC50 [2] [nM] | IC50 [3] [nM] | Ki [1] [nM]
COc1ccc(C(=O)N[C@@H](C)C(=O)N2CCC[C@H]2C(=O)N[C@H](C=O)CC(=O)O)cc1OCc1ccccc1 [Example 122i, 3-({1-[2-(3-benzyloxy-4-methoxy-benzoylamino)-propionyl]-pyrrolidine-2-carbonyl}-amino)-4-oxo-butyric acid] | < 10 | 1000 to 2000 | < 2500 | 
CC(C)(C)[C@H](NC(=O)c1ccc(N)c(Cl)c1)C(=O)N1CCCC1C(=O)N[C@H](C=O)CC(=O)O (some centres unmarked) [Example 73, 3-({-[2-(4-Amino-3-chloro-benzoylamino)-3,3-dimethyl-butyryl]-pyrrolidine-2-carbonyl}-amino)-4-oxo-butyric acid] | < 10 | 500 to 1000 | < 2500 | 
C[C@H](NC(=O)c1ccc(C(N)=O)cc1)C(=O)N1CCC[C@H]1C(=O)N[C@H](C=O)CC(=O)O [Example 7u] | 10 to 1000 | > 2000 | 2500 to 7500 | 
COc1ccc(C(=O)N[C@H](C(=O)N2C[C@H](NC(=O)NC(C)C)C[C@H]2C(=O)N[C@H](C=O)CC(=O)O)C(C)C)cc1 [Example 9b] | < 10 | 500 to 1000 | 2500 to 7500 | 
C[C@H](NC(=O)c1cccc2ccccc12)C(=O)N1CCC[C@H]1C(=O)N[C@H](C=O)CC(=O)O [Example 7a] | < 10 | > 2000 | 2500 to 7500 | 
CC(C)[C@H](NC(=O)c1ccccc1C(=O)c1ccccc1)C(=O)N1CCC[C@H]1C(=O)N[C@H](C=O)CC(=O)O [Example 5u] | 10 to 1000 | 1000 to 2000 | < 2500 | 10 to 1000
Cc1cc(C(=O)N[C@H](C(=O)N2CCNCC2C(=O)N[C@H](C=O)CC(=O)O)C(C)C)cc(C)c1O (some centres unmarked) [Example 15a] | < 10 | > 2000 | 2500 to 7500 | 
CC(C)[C@H](NC(=O)c1ccc2c(c1)OCO2)C(=O)N1CCC[C@H]1C(=O)N[C@H](C=O)CC(=O)O [Example 5r] | 10 to 1000 | > 2000 | > 7500 | 10 to 1000
C[C@H](NC(=O)c1ccc(NS(C)(=O)=O)cc1)C(=O)N1CCC[C@H]1C(=O)N[C@H](C=O)CC(=O)O [Example 7x] | 10 to 1000 | > 2000 | > 7500 | 
Cc1cc(C(=O)N[C@H](C(=O)N[C@@H](C)C(=O)N[C@H](C=O)CC(=O)O)C(C)C)cc(C)c1O [Example 29e] | < 10 | < 500 | < 2500 | 
C[C@H](NC(=O)c1nccc2ccccc12)C(=O)N1CCCC[C@H]1C(=O)N[C@H](C=O)CC(=O)O [Example 25a] | < 10 | < 500 | 2500 to 7500 | 
CCC(C)[C@H](NC(=O)c1nccc2ccccc12)C(=O)N1CCC[C@H]1C(=O)N[C@H](C=O)CC(=O)O (some centres unmarked) [Example 20c] | < 10 | 1000 to 2000 | 2500 to 7500 | 
C[C@@H](O)[C@H](NC(=O)c1nccc2ccccc12)C(=O)N1CCC[C@H]1C(=O)N[C@H](C=O)CC(=O)O [Example 20d] | 10 to 1000 | > 2000 | 2500 to 7500 | 
COc1ccc(C(=O)N[C@@H](C)C(=O)N2CCC[C@H]2C(=O)N[C@H](C=O)CC(=O)O)cc1F [Example 7m] | 10 to 1000 | 500 to 1000 | 2500 to 7500 | 
Cc1cc(C(=O)N[C@@H](C)C(=O)N2CCC[C@H]2C(=O)N[C@H](C=O)CC(=O)O)ccc1N [Example 7t] | 10 to 1000 | > 2000 | 2500 to 7500 | 
CC(=O)NC(C(=O)N1N=C(C(C)(C)C)SC1C(=O)NC(C=O)CC(=O)O)C(C)C (centres unmarked) [Example 42, 3-{[3-(2-acetylamino-3-methyl-butyryl)-5-tert-butyl-2,3-dihydro-[1,3,4]thiadiazole-2-carbonyl]-amino)-4-oxo-butyric acid] | 10 to 1000 | > 2000 | 2500 to 7500 | 
Cc1cc(C(=O)N[C@@H](C)C(=O)N2CCC[C@H]2C(=O)N[C@H](C=O)CC(=O)O)cc(Cl)c1N [Example 7w] | < 10 | 1000 to 2000 | < 2500 | 
